Source: patent US20100292188A1, “Compounds Comprising A Cyclobutoxy Group” (UCB PHARMA S.A., priority 2008, published 2010)

First: CC(=O)NCCC(=O)N1CCc2nc(-c3ccc(O[C@H]4C[C@H](N5CCCCC5)C4)cc3)sc2C1 [Compound 42, N-{3-oxo-3-[2-{4-[(trans-3-piperidin-1-ylcyclobutyl)oxy]phenyl}-6,7-dihydro[1,3]thiazolo[5,4-c]pyridin-5(4H)-yl]propyl}acetamide]
Second: NC(=O)NCC(=O)N1CCc2nc(-c3ccc(O[C@H]4C[C@H](N5CCCCC5)C4)cc3)sc2C1 [Compound 52, 1-{2-oxo-2-[2-{4-[(trans-3-piperidin-1-ylcyclobutyl)oxy]phenyl}-6,7-dihydro[1,3]thiazolo[5,4-c]pyridin-5(4H)-yl]ethyl}urea]
The melting point of the first is lower: 144 °C for the first, 209 to 210 °C for the second.

First: O=C(C(O)C(F)(F)F)N1CCc2nc(-c3ccc(O[C@H]4C[C@H](N5CCCCC5)C4)cc3)sc2C1 (stereo partly drawn) [Compound 44, 1,1,1-trifluoro-3-oxo-3-[2-{4-[(trans-3-piperidin-1-ylcyclobutyl)oxy]phenyl}-6,7-dihydro[1,3]thiazolo[5,4-c]pyridin-5(4H)-yl]propan-2-ol]
Second: O=C(C(O)CO)N1CCc2nc(-c3ccc(O[C@H]4C[C@H](N5CCCCC5)C4)cc3)sc2C1 (stereo partly drawn) [Compound 54, 3-oxo-3-[2-{4-[(trans-3-piperidin-1-ylcyclobutyl)oxy]phenyl}-6,7-dihydro[1,3]thiazolo[5,4-c]pyridin-5(4H)-yl]propane-1,2-diol]
The melting point of the first is lower: 147 to 148 °C for the first, 167 to 168 °C for the second.

Compared with `O=C(C1CCOCC1)N1CCc2nc(-c3ccc(O[C@H]4C[C@H](N5CCCCC5)C4)cc3)sc2C1` [Compound 45, 2-{4-[(trans-3-piperidin-1-ylcyclobutyl)oxy]phenyl}-5-(tetrahydro-2H-pyran-4-ylcarbonyl)-4,5,6,7-tetrahydro[1,3]thiazolo[5,4-c]pyridine], `O=C(N1CCc2nc(-c3ccc(O[C@H]4C[C@H](N5CCCCC5)C4)cc3)sc2C1)C1(O)CC1` [Compound 46, 1-{[2-{4-[(trans-3-piperidin-1-ylcyclobutyl)oxy]phenyl}-6,7-dihydro[1,3]thiazolo[5,4-c]pyridin-5(4H)-yl]carbonyl}cyclopropanol] is higher in melting point: 175 to 176 °C for the first, 178 °C for the second.

First: NC(=O)C1(C(=O)N2CCc3nc(-c4ccc(O[C@H]5C[C@H](N6CCCCC6)C5)cc4)sc3C2)CC1 [Compound 47, 1-{[2-{4-[(trans-3-piperidin-1-ylcyclobutyl)oxy]phenyl}-6,7-dihydro[1,3]thiazolo[5,4-c]pyridin-5(4H)-yl]carbonyl}cyclopropanecarboxamide]
Second: CCOC(=O)C(=O)N1CCc2nc(-c3ccc(O[C@H]4C[C@H](N5CCCCC5)C4)cc3)sc2C1 [Compound 49, ethyl oxo[2-{4-[(trans-3-piperidin-1-ylcyclobutyl)oxy]phenyl}-6,7-dihydro[1,3]thiazolo[5,4-c]pyridin-5(4H)-yl]acetate]
The melting point of the first is higher: 199 to 200 °C for the first, 145 to 146 °C for the second.

Compared with `CC(=O)N1CCc2nc(-c3ccc(O[C@H]4C[C@H](N5CCN(C6CCCC6)CC5)C4)cc3)sc2C1` [Compound 51, 5-acetyl-2-(4-{[trans-3-(4-cyclopentylpiperazin-1-yl)cyclobutyl]oxy}phenyl)-4,5,6,7-tetrahydro[1,3]thiazolo[5,4-c]pyridine], `NC(=O)N1CCc2sc(-c3ccc(O[C@H]4C[C@H](N5CCCCC5)C4)cc3)nc2C1` [Compound 64, 2-{4-[(trans-3-piperidin-1-ylcyclobutyl)oxy]phenyl}-6,7-dihydro[1,3]thiazolo[4,5-c]pyridine-5(4H)-carboxamide] is higher in melting point: 145.7 to 146.1 °C for the first, 214.3 °C for the second.

Compared with `CC(C)Oc1c(N2CCc3nc(-c4ccc(O[C@H]5C[C@H](N6CCCCC6)C5)cc4)sc3C2)c(=O)c1=O` [Compound 56, 3-isopropoxy-4-[2-{4-[(trans-3-piperidin-1-ylcyclobutyl)oxy]phenyl}-6,7-dihydro[1,3]thiazolo[5,4-c]pyridin-5(4H)-yl]cyclobut-3-ene-1,2-dione], `O=C(CO)N1CCc2sc(-c3ccc(O[C@H]4C[C@H](N5CCCCC5)C4)cc3)nc2C1` [Compound 63, 2-oxo-2-[2-{4-[(trans-3-piperidin-1-ylcyclobutyl)oxy]phenyl}-6,7-dihydro[1,3]thiazolo[4,5-c]pyridin-5(4H)-yl]ethanol] is lower in melting point: 157 to 159 °C for the first, 155.3 °C for the second.

Compared with `NC(=O)CC(=O)N1CCc2sc(-c3ccc(O[C@H]4C[C@H](N5CCCCC5)C4)cc3)nc2C1` [Compound 65, 3-oxo-3-[2-{4-[(trans-3-piperidin-1-ylcyclobutyl)oxy]phenyl}-6,7-dihydro[1,3]thiazolo[4,5-c]pyridin-5(4H)-yl]propanamide], `c1cc2nc(-c3ccc(O[C@H]4C[C@H](N5CCCCC5)C4)cc3)[nH]c2cn1` [Compound 69, 2-{4-[(trans-3-piperidin-1-ylcyclobutyl)oxy]phenyl}-3H-imidazo[4,5-c]pyridine] is lower in melting point: 183.4 °C for the first, 165 to 172 °C for the second.

With `O=C(O)COCC(=O)N1CCc2nc(-c3ccc(O[C@H]4C[C@H](N5CCCCC5)C4)cc3)sc2C1` [Compound 43, {2-oxo-2-[2-{4-[(trans-3-piperidin-1-ylcyclobutyl)oxy]phenyl}-6,7-dihydro[1,3]thiazolo[5,4-c]pyridin-5(4H)-yl]ethoxy}acetic acid] the melting point was > 200 °C.
With `O=c1c(O)c(N2CCc3nc(-c4ccc(O[C@H]5C[C@H](N6CCCCC6)C5)cc4)sc3C2)c1=O` [Compound 55, 3-hydroxy-4-[2-{4-[(trans-3-piperidin-1-ylcyclobutyl)oxy]phenyl}-6,7-dihydro[1,3]thiazolo[5,4-c]pyridin-5(4H)-yl]cyclobut-3-ene-1,2-dione] the melting point was > 220 °C.
